In ChEMBL document CHEMBL1201862, “PubChem BioAssay data set” (2004):
Blank lines part the entries; values can stand above or below the compound they belong to. Calls of active or inactive are those of the source.

Tests used:
cells [1] = details: HEK293
Bcl-2-related protein A1 = molecular target: T1, Bcl-2-related protein A1 (Mus musculus, UniProt Q07440); format: functional;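 further: confirmatory dose–response counterscreen on Bfl-1, used to check hits from a UBC13 polyubiquitin inhibitor campaign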
T1 sequence (Q07440 whole entry): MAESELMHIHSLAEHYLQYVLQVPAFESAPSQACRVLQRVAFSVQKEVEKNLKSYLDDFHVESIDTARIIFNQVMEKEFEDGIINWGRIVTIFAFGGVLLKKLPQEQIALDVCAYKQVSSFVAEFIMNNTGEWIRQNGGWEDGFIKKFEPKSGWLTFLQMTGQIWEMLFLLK

[2] = molecular target: T2, Ubiquitin-conjugating enzyme E2 N (Homo sapiens, UniProt P61088); format: functional
T2 sequence (P61088 whole entry): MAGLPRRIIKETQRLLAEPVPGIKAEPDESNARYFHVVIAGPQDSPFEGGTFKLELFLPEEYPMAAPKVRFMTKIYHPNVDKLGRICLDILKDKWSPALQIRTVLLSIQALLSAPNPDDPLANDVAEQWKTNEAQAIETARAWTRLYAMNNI

[3] = viability loss in HepG2 liver cells – cell-based, ATP luminescence, cherry-pick, set 6, cytotoxicity control, dose response (AID 1053125); format: functional
[4] = molecular target: T2, Ubiquitin-conjugating enzyme E2 N; format: functional; remark: listed apart in the source
cells [5] = details: A549
[6] = molecular target: T3, G-protein coupled receptor 35 (Homo sapiens, UniProt Q9HC97); test: SAR analysis of Antagonists of the GPR35 Receptor using an Image-Based Assay - Set 3. [Related pubchem assays (depositor defined):AID2013, AID2026]; format: functional
T3 sequence (Q9HC97 whole entry): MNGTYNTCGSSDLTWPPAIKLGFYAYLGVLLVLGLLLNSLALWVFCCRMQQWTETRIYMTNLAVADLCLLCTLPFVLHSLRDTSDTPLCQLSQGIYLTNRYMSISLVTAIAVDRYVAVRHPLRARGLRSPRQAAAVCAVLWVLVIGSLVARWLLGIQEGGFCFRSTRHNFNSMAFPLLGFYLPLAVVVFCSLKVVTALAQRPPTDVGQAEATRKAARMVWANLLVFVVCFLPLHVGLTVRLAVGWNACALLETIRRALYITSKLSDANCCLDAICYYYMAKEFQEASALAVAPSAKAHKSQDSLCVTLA

[7] = molecular target: T4, G-protein coupled receptor 55 (Homo sapiens, UniProt Q9Y2T6); test: blockade of LPI-induced GPR55 arrestin translocation – imaging, U2OS, beta-arrestin-GFP, LPI agonist, set 2, SAR follow-up (AID 2820); format: functional
T4 sequence (Q9Y2T6 whole entry): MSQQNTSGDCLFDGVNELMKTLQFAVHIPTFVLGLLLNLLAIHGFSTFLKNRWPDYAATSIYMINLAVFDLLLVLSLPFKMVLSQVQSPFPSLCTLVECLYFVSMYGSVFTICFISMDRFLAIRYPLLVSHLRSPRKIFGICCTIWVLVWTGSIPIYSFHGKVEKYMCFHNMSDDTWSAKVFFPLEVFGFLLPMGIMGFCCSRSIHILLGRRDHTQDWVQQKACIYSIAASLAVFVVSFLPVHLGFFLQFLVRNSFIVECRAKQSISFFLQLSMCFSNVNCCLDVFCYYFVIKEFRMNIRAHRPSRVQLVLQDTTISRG

[8] = molecular target: T4, G-protein coupled receptor 55; test: inhibition of LPI-stimulated GPR55 beta-arrestin translocation – imaging, U2OS, beta-arrestin-GFP, LPI agonist, primary screen (AID 2013); format: functional;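 further: antagonist potency measured as reduced agonist-driven arrestin aggregation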
Cannabinoid receptor 2 [9] = molecular target: T5, Cannabinoid receptor 2 (Homo sapiens, UniProt P34972); test: SAR analysis of antagonists of the Cannabinoid Receptor 2 using an Image-Based Assay. [Related pubchem assays (depositor defined):AID2013, AID2026]; format: functional
T5 sequence (P34972 whole entry): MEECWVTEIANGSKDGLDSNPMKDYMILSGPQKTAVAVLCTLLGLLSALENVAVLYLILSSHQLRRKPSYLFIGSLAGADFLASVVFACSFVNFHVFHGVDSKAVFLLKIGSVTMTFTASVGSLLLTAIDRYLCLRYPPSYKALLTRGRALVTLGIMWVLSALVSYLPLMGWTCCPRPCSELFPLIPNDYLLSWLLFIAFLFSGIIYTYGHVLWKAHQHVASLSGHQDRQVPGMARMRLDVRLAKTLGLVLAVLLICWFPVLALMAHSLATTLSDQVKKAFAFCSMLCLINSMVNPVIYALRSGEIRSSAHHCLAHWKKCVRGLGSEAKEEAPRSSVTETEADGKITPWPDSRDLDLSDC

[10] = molecular target: T3, G-protein coupled receptor 35; test: SAR analysis of Agonists of the GPR35 Receptor using an Image-Based Assay - Set 2. [Related pubchem assays (depositor defined):AID2013, AID2026]; format: functional
Cannabinoid receptor 1 [11] = molecular target: T6, Cannabinoid receptor 1 (Homo sapiens, UniProt P21554); test: SAR analysis of agonists of the Cannabinoid Receptor 1 using an Image-Based Assay - Set 2. [Related pubchem assays (depositor defined):AID2013, AID2026]; format: functional
T6 sequence (P21554 whole entry): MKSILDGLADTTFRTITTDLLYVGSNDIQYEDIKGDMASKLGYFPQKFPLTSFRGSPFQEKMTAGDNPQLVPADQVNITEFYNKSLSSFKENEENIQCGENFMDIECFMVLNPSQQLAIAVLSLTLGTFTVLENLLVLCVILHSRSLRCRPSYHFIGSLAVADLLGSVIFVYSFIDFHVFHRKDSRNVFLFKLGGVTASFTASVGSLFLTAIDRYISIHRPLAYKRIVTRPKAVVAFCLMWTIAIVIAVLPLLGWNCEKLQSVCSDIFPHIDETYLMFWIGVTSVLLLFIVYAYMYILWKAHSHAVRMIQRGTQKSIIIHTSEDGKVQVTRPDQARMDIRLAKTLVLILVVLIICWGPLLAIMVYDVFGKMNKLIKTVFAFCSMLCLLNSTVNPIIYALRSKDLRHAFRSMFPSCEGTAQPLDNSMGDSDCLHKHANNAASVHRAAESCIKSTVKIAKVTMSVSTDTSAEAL

Cannabinoid receptor 1 [12] = molecular target: T6, Cannabinoid receptor 1; test: SAR analysis of antagonists of the Cannabinoid Receptor 1 using an Image-Based Assay - Set 2. [Related pubchem assays (depositor defined):AID2013, AID2026]; format: functional
Cannabinoid receptor 2 [13] = molecular target: T5, Cannabinoid receptor 2; test: SAR analysis of agonists of the Cannabinoid Receptor 2 using an Image-Based Assay. [Related pubchem assays (depositor defined):AID2013, AID2026]; format: functional
Cannabinoid receptor 2 [14] = molecular target: T5, Cannabinoid receptor 2; test: SAR analysis of agonists of the Cannabinoid Receptor 2 using an Image-Based Assay - Set 3. [Related pubchem assays (depositor defined):AID2013, AID2026]; format: functional
Cannabinoid receptor 1 [15] = molecular target: T6, Cannabinoid receptor 1; test: SAR analysis of antagonists of the Cannabinoid Receptor 1 using an Image-Based Assay - Set 4. [Related pubchem assays (depositor defined):AID2013, AID2026]; format: functional
Cannabinoid receptor 1 [16] = molecular target: T6, Cannabinoid receptor 1; test: SAR analysis of agonists of the Cannabinoid Receptor 1 using an Image-Based Assay - Set 4. [Related pubchem assays (depositor defined):AID2013, AID2026]; format: functional
[17] = molecular target: T4, G-protein coupled receptor 55; test: SAR Analysis of Selective Antagonists of GPR55 using an Image-Based Assay - Set 4. [Related pubchem assays (depositor defined):AID2013, AID2026]; format: functional
[18] = molecular target: T3, G-protein coupled receptor 35; test: SAR analysis of Antagonists of the GPR35 Receptor using an Image-Based Assay - Set 6. [Related pubchem assays (depositor defined):AID2013, AID2026]; format: functional
[19] = molecular target: T3, G-protein coupled receptor 35; test: SAR analysis of Agonists of the GPR35 Receptor using an Image-Based Assay - Set 4. [Related pubchem assays (depositor defined):AID2013, AID2026]; format: functional
Cannabinoid receptor 2 [20] = molecular target: T5, Cannabinoid receptor 2; test: SAR analysis of antagonists of the Cannabinoid Receptor 2 using an Image-Based Assay - Set 3. [Related pubchem assays (depositor defined):AID2013, AID2026]; format: functional
[21] = molecular target: Intestinal-type alkaline phosphatase (Homo sapiens, UniProt P09923); test: activation of human intestinal alkaline phosphatase – biochemical, dose response (AID 488873); format: functional
Intestinal-type alkaline phosphatase (Homo sapiens, UniProt P09923), sequence (P09923 whole entry): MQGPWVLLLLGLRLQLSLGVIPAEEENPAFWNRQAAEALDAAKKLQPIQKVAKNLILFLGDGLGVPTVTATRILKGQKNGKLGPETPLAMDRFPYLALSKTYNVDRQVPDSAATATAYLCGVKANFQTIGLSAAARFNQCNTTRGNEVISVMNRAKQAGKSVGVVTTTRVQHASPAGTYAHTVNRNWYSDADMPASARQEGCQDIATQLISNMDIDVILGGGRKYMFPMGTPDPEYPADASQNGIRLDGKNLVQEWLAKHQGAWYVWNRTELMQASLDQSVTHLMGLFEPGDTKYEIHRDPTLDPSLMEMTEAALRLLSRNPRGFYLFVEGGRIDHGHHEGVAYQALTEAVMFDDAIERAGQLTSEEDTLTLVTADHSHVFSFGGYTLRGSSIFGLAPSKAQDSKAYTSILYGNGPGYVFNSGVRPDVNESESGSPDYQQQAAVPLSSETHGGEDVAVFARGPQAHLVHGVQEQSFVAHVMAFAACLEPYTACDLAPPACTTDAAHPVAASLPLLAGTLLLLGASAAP

[22] = molecular target: T7, Heat shock factor protein 1 (Mus musculus, UniProt P38532); test: enhancement of HSF1-driven luciferase signal – cell-based, NIH3T3, luminescence, dose retest, confirmation (AID 435004); format: functional;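 further: stress induced by proteasome inhibitor MG132 added 30 min after compound; luciferase reporter driven by HSF1 response element in NIH3T3 cells; actives raise luminescence as potentiators of the MG132 stress response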
T7 sequence (P38532 whole entry): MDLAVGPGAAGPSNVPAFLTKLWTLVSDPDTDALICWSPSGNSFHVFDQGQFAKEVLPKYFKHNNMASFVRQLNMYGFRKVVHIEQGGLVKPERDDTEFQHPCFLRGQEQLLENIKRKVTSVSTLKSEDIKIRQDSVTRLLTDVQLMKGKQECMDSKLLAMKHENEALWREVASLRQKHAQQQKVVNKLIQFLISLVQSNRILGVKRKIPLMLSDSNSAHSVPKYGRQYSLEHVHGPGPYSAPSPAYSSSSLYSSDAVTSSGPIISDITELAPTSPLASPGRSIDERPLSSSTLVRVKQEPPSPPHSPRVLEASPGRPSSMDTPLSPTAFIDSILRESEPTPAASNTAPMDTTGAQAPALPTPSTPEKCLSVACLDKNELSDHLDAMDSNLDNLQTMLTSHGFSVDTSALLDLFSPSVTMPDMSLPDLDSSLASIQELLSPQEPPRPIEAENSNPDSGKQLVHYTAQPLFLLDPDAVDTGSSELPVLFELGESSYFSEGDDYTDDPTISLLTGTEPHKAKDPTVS

[23] = molecular target: T8, Alkaline phosphatase, tissue-nonspecific isozyme (Homo sapiens, UniProt P05186); test: activation of tissue-nonspecific alkaline phosphatase – biochemical, TNAP isozyme, mouse IAP uHTS hits, selectivity assay for mouse IAP activator project, dose response (AID 488880); format: functional
T8 sequence (P05186 whole entry): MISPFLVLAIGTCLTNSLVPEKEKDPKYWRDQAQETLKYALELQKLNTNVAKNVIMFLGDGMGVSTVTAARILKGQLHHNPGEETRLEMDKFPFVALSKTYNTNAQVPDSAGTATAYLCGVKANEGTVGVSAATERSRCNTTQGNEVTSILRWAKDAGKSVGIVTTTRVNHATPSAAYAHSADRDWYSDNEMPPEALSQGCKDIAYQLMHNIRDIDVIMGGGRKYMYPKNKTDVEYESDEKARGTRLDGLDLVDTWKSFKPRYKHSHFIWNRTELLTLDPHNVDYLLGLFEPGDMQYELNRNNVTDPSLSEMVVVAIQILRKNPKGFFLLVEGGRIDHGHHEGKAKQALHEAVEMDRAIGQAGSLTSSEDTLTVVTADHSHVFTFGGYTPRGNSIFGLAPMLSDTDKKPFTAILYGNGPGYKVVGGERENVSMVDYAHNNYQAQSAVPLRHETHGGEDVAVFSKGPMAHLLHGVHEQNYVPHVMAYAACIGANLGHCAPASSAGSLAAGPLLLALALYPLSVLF

[24] = molecular target: Intestinal-type alkaline phosphatase (Mus musculus, UniProt P24822); test: mouse intestinal alkaline phosphatase activators, dose response, biochemical, luminescence, uHTS hits (AID 488783); format: functional
Intestinal-type alkaline phosphatase (Mus musculus, UniProt P24822), sequence (P24822 whole entry): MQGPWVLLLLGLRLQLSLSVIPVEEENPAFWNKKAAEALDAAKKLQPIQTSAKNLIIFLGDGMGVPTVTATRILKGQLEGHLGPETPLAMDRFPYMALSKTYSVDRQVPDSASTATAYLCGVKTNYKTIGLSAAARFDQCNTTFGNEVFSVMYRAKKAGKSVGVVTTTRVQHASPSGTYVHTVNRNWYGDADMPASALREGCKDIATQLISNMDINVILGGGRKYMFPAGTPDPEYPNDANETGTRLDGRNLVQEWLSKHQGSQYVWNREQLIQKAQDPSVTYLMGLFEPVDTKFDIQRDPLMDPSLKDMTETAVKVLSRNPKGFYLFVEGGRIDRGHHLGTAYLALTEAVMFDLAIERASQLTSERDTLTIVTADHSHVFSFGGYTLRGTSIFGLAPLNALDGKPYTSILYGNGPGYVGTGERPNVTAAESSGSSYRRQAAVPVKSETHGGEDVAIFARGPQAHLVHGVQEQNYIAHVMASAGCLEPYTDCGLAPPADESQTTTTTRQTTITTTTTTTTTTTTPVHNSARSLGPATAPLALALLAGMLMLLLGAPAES

[25] = molecular target: T9, Rac GTPase-activating protein 1 (Homo sapiens, UniProt Q9H0H5); test: blockers of MgcRacGAP-driven Rac1 GTP hydrolysis – biochemical, ADP Hunter fluorescence, primary and confirmatory, confirmation (AID 624330); format: functional
T9 sequence (Q9H0H5 whole entry): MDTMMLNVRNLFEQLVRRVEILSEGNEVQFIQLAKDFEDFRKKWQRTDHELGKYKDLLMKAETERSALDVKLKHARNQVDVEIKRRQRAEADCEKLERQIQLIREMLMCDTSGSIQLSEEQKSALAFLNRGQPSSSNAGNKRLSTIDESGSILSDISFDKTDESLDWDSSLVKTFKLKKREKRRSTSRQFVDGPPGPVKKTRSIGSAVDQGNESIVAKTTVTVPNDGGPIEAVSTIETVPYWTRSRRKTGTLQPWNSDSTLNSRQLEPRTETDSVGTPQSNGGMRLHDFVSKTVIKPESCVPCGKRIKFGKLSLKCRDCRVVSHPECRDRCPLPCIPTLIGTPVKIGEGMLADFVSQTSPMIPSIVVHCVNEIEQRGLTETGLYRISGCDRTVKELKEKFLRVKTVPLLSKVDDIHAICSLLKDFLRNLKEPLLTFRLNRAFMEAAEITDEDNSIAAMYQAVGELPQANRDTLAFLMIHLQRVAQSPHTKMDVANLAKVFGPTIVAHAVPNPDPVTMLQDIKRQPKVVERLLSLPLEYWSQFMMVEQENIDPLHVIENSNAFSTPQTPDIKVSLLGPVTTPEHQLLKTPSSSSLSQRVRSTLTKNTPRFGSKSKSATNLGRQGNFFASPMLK

[26] = molecular target: T10, RNA-binding protein pos-1 (Caenorhabditis elegans, UniProt G5EF15); test: disruptors of C. elegans POS-1 RNA interaction – biochemical, fluorescence polarization, dose response (AID 1964);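 further: purified POS-1 fused to maltose binding protein made in E. coli; potency of compounds blocking POS-1 binding to fluorescent RNA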
T10 sequence (G5EF15 whole entry): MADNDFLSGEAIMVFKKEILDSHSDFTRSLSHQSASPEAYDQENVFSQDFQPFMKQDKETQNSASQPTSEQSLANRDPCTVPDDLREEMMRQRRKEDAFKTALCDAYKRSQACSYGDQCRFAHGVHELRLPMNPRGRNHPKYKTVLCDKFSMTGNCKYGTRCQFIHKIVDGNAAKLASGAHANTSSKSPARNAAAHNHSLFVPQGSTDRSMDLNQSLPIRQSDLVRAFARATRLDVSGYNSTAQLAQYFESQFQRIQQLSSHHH

[27] = molecular target: T11, Zinc finger protein mex-5 (Caenorhabditis elegans, UniProt Q9XUB2); test: potency of MEX-5 RNA-binding blockers – biochemical, C. elegans, fluorescence polarization, dose response (AID 1960)
T11 sequence (Q9XUB2 whole entry): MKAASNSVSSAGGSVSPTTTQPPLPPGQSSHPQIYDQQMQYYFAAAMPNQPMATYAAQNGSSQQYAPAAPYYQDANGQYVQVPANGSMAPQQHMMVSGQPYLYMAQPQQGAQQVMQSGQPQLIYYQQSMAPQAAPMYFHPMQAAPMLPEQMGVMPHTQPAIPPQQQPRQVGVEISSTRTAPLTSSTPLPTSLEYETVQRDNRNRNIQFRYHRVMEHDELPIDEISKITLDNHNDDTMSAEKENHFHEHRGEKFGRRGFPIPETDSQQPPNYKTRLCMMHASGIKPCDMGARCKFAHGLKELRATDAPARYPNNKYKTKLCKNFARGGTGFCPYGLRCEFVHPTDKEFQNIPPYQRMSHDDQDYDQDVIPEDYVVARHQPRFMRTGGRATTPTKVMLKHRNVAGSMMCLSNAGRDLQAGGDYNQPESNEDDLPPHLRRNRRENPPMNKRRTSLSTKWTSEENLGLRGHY

SMILES: CC(=O)NC(=S)NNC(=O)c1ccc(Br)cc1
- AC50 (cells [1]): > 52 µM (inactive)
- IC50 (Bcl-2-related protein A1): > 20 µM (inactive)
- IC50 [2]: 14.9 µM (active)
- AC50 [3]: > 52 µM (inactive)
- IC50 [4]: 17 µM (active)
- AC50 (cells [5]): 46.3 µM (active)

- IC50 [6]: > 32 µM (inactive)
- IC50 [7]: 1.06 µM (active)
- IC50 [8]: 1.8 µM (active)
- IC50 (Cannabinoid receptor 2 [9]): > 32 µM (inactive)
- EC50 [10]: > 32 µM (inactive)
- EC50 (Cannabinoid receptor 1 [11]): > 32 µM (inactive)
- IC50 (Cannabinoid receptor 1 [12]): 8.82 µM (active)
- EC50 (Cannabinoid receptor 2 [13]): 30.2 µM (inactive)
SMILES: COc1ccc(-c2c(-c3ccc(O)cc3O)n[nH]c2C(F)(F)F)cc1

- EC50 (Cannabinoid receptor 2 [14]): > 32 µM (inactive)
- IC50 (Cannabinoid receptor 1 [15]): 4.09 µM (active)
- EC50 (Cannabinoid receptor 1 [16]): > 32 µM (inactive)
- IC50 [17]: 29 µM (inactive)
- IC50 [18]: > 32 µM (inactive)
- EC50 [19]: > 32 µM (inactive)
- IC50 (Cannabinoid receptor 2 [20]): > 32 µM (inactive)
SMILES: O=C(Nc1ccc(S(=O)(=O)Nc2nccs2)cc1)c1cc(-c2cccs2)nc2ccccc12

- EC50 [21]: 66.2 µM (active)
- EC50 [22]: > 260 µM (inactive)
- EC50 [23]: 56.1 µM (active)
- EC50 [24]: 58.7 µM (active)
- IC50 [25]: 21.4 µM (active)
- EC50 [26]: 99.3 µM (active)
- EC50 [27]: 125 µM (active)
SMILES: Cc1cc(O)nc(N/N=C/c2ccc(O)c(O)c2)n1
